Experiments:
Assay type in all cases: in vivo
[1] = tested on: soybean (Glycine max L., var. Pella 86, SOY); test: Post-emerge greenhouse test, crop damage rating; design: key to crop damage rating SOY: 0-100 scale: 0 = no damage, 100 = complete death of all plants; conditions: 14 days after application, scale 0-100
Outline: (§1)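 Scores use a 0 (no damage) to 100 (complete kill) scale, taken 14 days after a foliar spray. Acetone solutions with 0.25% v/v non-ionic surfactant were applied by track sprayer at 187 l/ha and 63-1000 g ai/ha to bottom-watered 2-3 leaf plants.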

[2] = tested on: ivyleaf morningglory (Ipomoea hederacea, IPOHE); test: Pre-emerge greenhouse herbicide test, phytotoxicity rating; conditions: 14 days after application, rating scale 0-100
Outline: (§2)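 Visual 0–100 injury rating (100 = all plants dead) taken 14 days after treatment. Rates of 125–1000 g ai/ha in acetone, 187 l/ha, were sprayed onto soil one day post-sowing; pots were surface-watered to incorporate, then bottom-watered.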

[3] = tested on: sicklepod (Cassia obtusifolia, CASOB); test: as above; conditions: 14 days after application, rating scale 0-100
Outline: as §2

[4] = tested on: barnyardgrass (Echinochloa crusgalli, ECHCG); test: as above; conditions: 14 days after application, rating scale 0-100
Outline: as §2

[5] = tested on: lambsquarters (Chenopodium album, CHEAL); test: as above; conditions: 14 days after application, rating scale 0-100
Outline: as §2

[6] = tested on: common ragweed (Ambrosia artemisiifolia L., AMBEL); test: as above; conditions: 14 days after application, rating scale 0-100
Outline: as §2

[7] = tested on: Johnsongrass (Sorghum halepense, SORHA); test: as above; conditions: 14 days after application, rating scale 0-100
Outline: as §2

[8] = tested on: redroot pigweed (Amaranthus retroflexus, AMARE); test: as above; conditions: 14 days after application, rating scale 0-100
Outline: as §2

[9] = tested on: green foxtail (Setaria viridis, SETVI); test: as above; conditions: 14 days after application, rating scale 0-100
Outline: as §2

[10] = tested on: velvetleaf (Abutilon theophrasti, ABUTH); test: as above; conditions: 14 days after application, rating scale 0-100
Outline: as §2

[11] = tested on: large crabgrass (Digitaria sanguinalis, DIGSA); test: as above; conditions: 14 days after application, rating scale 0-100
Outline: as §2

[12] = tested on: field corn (Zea mays L., var. Dekalb 535, CORN); test: Post-emerge greenhouse test, crop damage rating; conditions: 14 days after application, scale 0-100
Outline: as §1

[13] = tested on: upland rice (Oryza sp., var.Tebonnet, RICE); test: Post-emerge greenhouse test, crop damage rating; conditions: 14 days after application, scale 0-100
Outline: as §1

[14] = tested on: field corn (Zea mays L., var. Dekalb 535, CORN); test: Pre-emerge greenhouse test, crop damage rating; conditions: 14 days after application, rating scale 0-100
Outline: as §2

[15] = tested on: upland rice (Oryza sp., var.Tebonnet, RICE); test: Pre-emerge greenhouse test, crop damage rating; conditions: 14 days after application, rating scale 0-100
Outline: as §2

[16] = tested on: ivyleaf morningglory (Ipomoea hederacea, IPOHE); test: Post-emerge greenhouse herbicide test, phytotoxicity rating; conditions: 14 days after application, scale 0-100
Outline: as §1

[17] = tested on: sicklepod (Cassia obtusifolia, CASOB); test: as above; conditions: 14 days after application, scale 0-100
Outline: as §1

[18] = tested on: barnyardgrass (Echinochloa crusgalli, ECHCG); test: as above; conditions: 14 days after application, scale 0-100
Outline: as §1

[19] = tested on: lambsquarters (Chenopodium album, CHEAL); test: as above; conditions: 14 days after application, scale 0-100
Outline: as §1

[20] = tested on: Johnsongrass (Sorghum halepense, SORHA); test: as above; conditions: 14 days after application, scale 0-100
Outline: as §1

[21] = tested on: redroot pigweed (Amaranthus retroflexus, AMARE); test: as above; conditions: 14 days after application, scale 0-100
Outline: as §1

[22] = tested on: green foxtail (Setaria viridis, SETVI); test: as above; conditions: 14 days after application, scale 0-100
Outline: as §1

[23] = tested on: velvetleaf (Abutilon theophrasti, ABUTH); test: as above; conditions: 14 days after application, scale 0-100
Outline: as §1

[24] = tested on: large crabgrass (Digitaria sanguinalis, DIGSA); test: as above; conditions: 14 days after application, scale 0-100
Outline: as §1

[25] = tested on: soybean (Glycine max L., var. Pella 86, SOY); test: Pre-emerge greenhouse test, crop damage rating; design: key to SOY crop damage rating: 0 = no damage, 100 = complete death of all plants; conditions: 14 days after application, rating scale 0-100
Outline: as §2

[26] = tested on: common ragweed (Ambrosia artemisiifolia L., AMBEL); test: Post-emerge greenhouse herbicide test, phytotoxicity rating; conditions: 14 days after application, scale 0-100
Outline: as §1

COc1cc(Oc2cc(-n3c(=O)n4n(c3=S)CCCC4)c(F)cc2Cl)nc(OC)n1 [Compound 8-32]
20: ECHCG phytotoxicity rating ([4]; Rate 500 g al/ha) | DIGSA phytotoxicity rating ([11]; Rate 125 g al/ha) | phytotoxicity rating SORHA ([20]; rate 500 g ai/ha)
30: crop damage rating SOY ([1]; rate 63 g ai/ha) | CASOB phytotoxicity rating ([3]; Rate 125 g al/ha) | SORHA phytotoxicity rating ([7]; Rate 500 g al/ha)
10: SORHA phytotoxicity rating ([7]; Rate 125 g al/ha) | SETVI phytotoxicity rating ([9]; Rate 125 g al/ha) | crop damage rating RICE ([13]; rate 500 g ai/ha) | CORN crop damage rating ([14]; Rate 500 g al/ha) | phytotoxicity rating CASOB ([17]; rate 63 g ai/ha) | phytotoxicity rating ECHCG ([18]; rate 500 g ai/ha) | phytotoxicity rating SETVI ([22]; rate 63 g ai/ha)
100: CHEAL phytotoxicity rating ([5]; Rate 500 g al/ha) | AMARE phytotoxicity rating ([8]; Rate 500 g al/ha) | SETVI phytotoxicity rating ([9]; Rate 500 g al/ha) | ABUTH phytotoxicity rating ([10]; Rate 500 g al/ha) | phytotoxicity rating IPOHE ([16]; rate 63 g ai/ha) | phytotoxicity rating IPOHE ([16]; rate 500 g ai/ha) | phytotoxicity rating CASOB ([17]; rate 500 g ai/ha) | phytotoxicity rating CHEAL ([19]; rate 500 g ai/ha) | phytotoxicity rating AMARE ([21]; rate 500 g ai/ha) | phytotoxicity rating ABUTH ([23]; rate 63 g ai/ha) | phytotoxicity rating ABUTH ([23]; rate 500 g ai/ha)
0: ECHCG phytotoxicity rating ([4]; Rate 125 g al/ha) | AMBEL phytotoxicity rating ([6]; Rate 125 g al/ha) | crop damage rating RICE ([13]; rate 63 g ai/ha) | CORN crop damage rating ([14]; Rate 125 g al/ha) | RICE crop damage rating ([15]; Rate 125 g al/ha) | phytotoxicity rating ECHCG ([18]; rate 63 g ai/ha) | phytotoxicity rating SORHA ([20]; rate 63 g ai/ha) | phytotoxicity rating DIGSA ([24]; rate 63 g ai/ha) | phytotoxicity rating DIGSA ([24]; rate 500 g ai/ha) | SOY crop damage rating ([25]; Rate 125 g al/ha) | SOY crop damage rating ([25]; Rate 500 g al/ha)
90: IPOHE phytotoxicity rating ([2]; Rate 500 g al/ha) | CHEAL phytotoxicity rating ([5]; Rate 125 g al/ha) | DIGSA phytotoxicity rating ([11]; Rate 500 g al/ha) | phytotoxicity rating AMARE ([21]; rate 63 g ai/ha) | phytotoxicity rating AMBEL ([26]; rate 500 g ai/ha)
95: ABUTH phytotoxicity rating ([10]; Rate 125 g al/ha) | phytotoxicity rating CHEAL ([19]; rate 63 g ai/ha)
80: crop damage rating SOY ([1]; rate 500 g ai/ha) | CASOB phytotoxicity rating ([3]; Rate 500 g al/ha)
50: AMBEL phytotoxicity rating ([6]; Rate 500 g al/ha) | AMARE phytotoxicity rating ([8]; Rate 125 g al/ha) | phytotoxicity rating AMBEL ([26]; rate 63 g ai/ha)
40: IPOHE phytotoxicity rating ([2]; Rate 125 g al/ha) | RICE crop damage rating ([15]; Rate 500 g al/ha) | phytotoxicity rating SETVI ([22]; rate 500 g ai/ha)
5: crop damage rating CORN ([12]; rate 63 g ai/ha) | crop damage rating CORN ([12]; rate 500 g ai/ha)

From patent US6479435B1, “Diaryl ethers and processes for their preparation and herbicidal and desiccant compositions containing them” (ISK Americas Incorporated, priority 1997, dated 2002)
